Reference: US12134620B2 (ARAXES PHARMA LLC, priority 2018, dated 2024)

Target: T1, KRAS G12C 1-169, his-tagged protein, GDP-loaded (Homo sapiens, UniProt P01116, G12C)
T1 construct: KRAS G12C 1-169, his-tagged protein, GDP-loaded; His tag
Experiment: Biochemical assay: covalent modification of KRAS G12C, analysed by mass spectrometry (RapidFire/TOF or Q-Exactive); note: time not given here
Assay type: binding
Conditions: Modification activity, modification percentage from MS peak intensities
Outline: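 GDP-loaded His-tagged KRAS G12C 1-169 (2 μM or 0.5 μM in 20 mM Hepes, 150 mM NaCl, 1 mM MgCl2) reacted with compound at 32 μM or 8 μM final (2% DMSO) for a set time, then quenched with formic acid. Percent covalent modification from deconvoluted intact-protein MS peak intensities (RapidFire/TOF or LC-Q Exactive).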

How did the Binding % turn out when `C=CC(=O)N1CC2(CCN(c3nc(OCCN4CCC(F)(F)C4)nc(-c4c(C)ccc5[nH]ncc45)c3C#N)C2)C1` [Compound I-21, 4-(2-acryloyl-2,6-diazaspiro[3.4]octan-6-yl)-2-(2-(3,3-difluoropyrrolidin-1-yl)ethoxy)-6-(5-methyl-1H-indazol-4-yl)pyrimidine-5-carbonitrile] was run?
The Binding % was “++ (++ indicates binding activity from 50 to 85%)”.

With `C=CC(=O)N1CC2(CCN(c3nc(N4CCC5(CCN(C)C5)C4)nc(-c4c(C)ccc5[nH]ncc45)c3C#N)C2)C1` (stereo not drawn) [Compound I-77, 4-(2-acryloyl-2,6-diazaspiro[3.4]octan-6-yl)-6-(5-methyl-1H-indazol-4-yl)-2-(7-methyl-2,7-diazaspiro[4.4]nonan-2-yl)pyrimidine-5-carbonitrile] as the compound, how does the Binding % read?
The Binding % was “+++ (+++ indicates binding activity greater than 85%)”.

`C=CC(=O)N1CC2(CCN(c3ncnc(-c4c(C)ccc5[nH]ncc45)c3CC(F)(F)F)C2)C1` [Compound I-259, 1-(6-(6-(5-methyl-1H-indazol-4-yl)-5-(2,2,2-trifluoroethyl)pyrimi-din-4-yl)-2,6-diazaspiro[3.4]octan-2-yl)prop-2-en-1-one] was tested. Which Binding % did it give?
Its Binding % is “+ (+ indicates binding activity greater than 0% and up to 50%)”.

`C=CC(=O)N1CC2(CCN(c3nc(OC[C@@H]4CCCN4C)nc(-c4c(C)ccc5[nH]cnc45)c3C#N)C2)C1` [Compound I-29, 4-(2-acryloyl-2,6-diazaspiro[3.4]octan-6-yl)-6-(5-methyl-1H-benzo[d]imidazol-4-yl)-2-(((S)-1-methylpyrrolidin-2-yl)methoxy)pyrimidine-5-carbonitrile] was tested. Which Binding % did it give?
Its Binding % is “+ (+ indicates binding activity greater than 0% and up to 50%)”.

Which Binding % does the source give for `C=CC(=O)N1CC2(CCN(c3nc(OCc4cccc(C)n4)nc(-c4c(C)ccc5cnn(C)c45)c3C#N)C2)C1` [Compound I-170, 4-(2-acryloyl-2,6-diazaspiro[3.4]octan-6-yl)-6-(1,6-dimethyl-1H-indazol-7-yl)-2-((6-methylpyridin-2-yl)methoxy)pyrimidine-5-carbonitrile] here?
Its Binding % is “++ (++ indicates binding activity from 50 to 85%)”.

Which Binding % does the source give for `C=CC(=O)N1CC2(CCN(c3nc(OCc4cccc(C)n4)nc(-c4c(C)ccc5[nH]ncc45)c3C#N)C2)C1` [Compound I-172, 4-(2-acryloyl-2,6-diazaspiro[3.4]octan-6-yl)-6-(5-methyl-1H-indazol-4-yl)-2-((6-methylpyridin-2-yl)methoxy)pyrimidine-5-carbonitrile] here?
The Binding % was “+++ (+++ indicates binding activity greater than 85%)”.

Which Binding % does the source give for `C=CC(=O)N1CC2(CCN(c3nc(OCCN4CC(F)(F)C4)nc(-c4c(C)ccc5[nH]ncc45)c3C#N)C2)C1` [Compound I-87, 4-(2-acryloyl-2,6-diazaspiro[3.4]octan-6-yl)-2-(2-(3,3-difluoroazetidin-1-yl)ethoxy)-6-(5-methyl-1H-indazol-4-yl)pyrimidine-5-carbonitrile] here?
The Binding % was “++ (++ indicates binding activity from 50 to 85%)”.

Which Binding % does the source give for `C=CC(=O)N1CC2(CCN(c3ncnc(-c4c(C)ccc5[nH]ncc45)c3O)C2)C1` [Compound I-245, 1-(6-(5-hydroxy-6-(5-methyl-1H-indazol-4-yl)pyrimidin-4-yl)-2,6-diazaspiro[3.4]octan-2-yl)prop-2-en-1-one] here?
The Binding % was “+ (+ indicates binding activity greater than 0% and up to 50%)”.

For `C=CC(=O)N1CC2(CCN(c3cnc(Cc4ccccc4)c(-c4c(C)ccc5[nH]ncc45)c3C#N)C2)C1` [Compound I-223, 5-(2-acryloyl-2,6-diazaspiro[3.4]octan-6-yl)-2-benzyl-3-(5-methyl-1H-indazol-4-yl)isonicotinonitrile], which Binding % is on record?
The Binding % was “++ (++ indicates binding activity from 50 to 85%)”.

For `C=CC(=O)N1CC2(CCN(c3ncnc(-c4c(C)ccc5[nH]ncc45)c3C#N)C2)C1` [Compound I-231, 4-(2-acryloyl-2,6-diazaspiro[3.4]octan-6-yl)-6-(5-methyl-1H-indazol-4-yl)pyrimidine-5-carbonitrile], which Binding % is on record?
Its Binding % is “+ (+ indicates binding activity greater than 0% and up to 50%)”.

How did the Binding % turn out when `C/C=C/C(=O)N1CC2(CCN(c3nc(OCc4ccccn4)nc(-c4c(C)ccc5[nH]ncc45)c3C#N)C2)C1` [Compound I-98, (E)-4-(2-(but-2-enoyl)-2,6-diazaspiro[3.4]octan-6-yl)-6-(5-methyl-1H-indazol-4-yl)-2-(pyridin-2-ylmethoxy)pyrimidine-5-carbonitrile] was run?
Its Binding % is “+ (+ indicates binding activity greater than 0% and up to 50%)”.

How did the Binding % turn out when `C=CC(=O)N1CC2(CCN(c3nc(N4CCOCC4)nc(-c4cc(O)cc5ccccc45)c3C#N)C2)C1` [Compound I-80, 4-(2-acryloyl-2,6-diazaspiro[3.4]octan-6-yl)-6-(3-hydroxynaphthalen-1-yl)-2-morpholinopyrimidine-5-carbonitrile] was run?
The Binding % was “+++ (+++ indicates binding activity greater than 85%)”.

For `C=CC(=O)N1CC2(CCN(c3c(OC[C@@H]4CCCN4C)ncc(-c4c(C)ccc5cnn(C)c45)c3C#N)C2)C1` [Compound I-182, 3-(2-acryloyl-2,6-diazaspiro[3.4]octan-6-yl)-5-(1,6-dimethyl-1H-indazol-7-yl)-2-(((S)-1-methylpyrrolidin-2-yl)methoxy)isonicoti-nonitrile], which Binding % is on record?
Its Binding % is “+ (+ indicates binding activity greater than 0% and up to 50%)”.

`C=CC(=O)N1CC2(CC(=O)N(c3nc(N4CCOCC4)nc(-c4c(C)ccc5cn[nH]c45)c3C#N)C2)C1` [Compound I-176, 4-(2-acryloyl-7-oxo-2,6-diazaspiro[3.4]octan-6-yl)-6-(6-methyl-1H-indazol-7-yl)-2-morpholinopyrimidine-5-carbonitrile] was tested. Which Binding % did it give?
Its Binding % is “+ (+ indicates binding activity greater than 0% and up to 50%)”.

For `C=CC(=O)N1CC2(CCN(c3nc(OCc4ccccn4)nc(-c4cc(O)cc5ccccc45)c3C#N)C2)C1` [Compound I-114, 4-(2-acryloyl-2,6-diazaspiro[3.4]octan-6-yl)-6-(3-hydroxynaphthalen-1-yl)-2-(pyridin-2-ylmethoxy)pyrimidine-5-carbonitrile], which Binding % is on record?
Its Binding % is “+++ (+++ indicates binding activity greater than 85%)”.

For `C=CC(=O)N1CC2(CCN(c3nc(OC[C@@H]4CCCN4C)nc(-c4cc(O)cc5ccccc45)c3C#N)C2)C1` [Compound I-92, (S)-4-(2-acryloyl-2,6-diazaspiro[3.4]octan-6-yl)-6-(3-hydroxynaphthalen-1-yl)-2-((1-methylpyrrolidin-2-yl)methoxy)pyrimidine-5-carbonitrile], which Binding % is on record?
Its Binding % is “++ (++ indicates binding activity from 50 to 85%)”.

For `C=CC(=O)N1CC2(CCN(c3nc(OCc4ccc(N5CCN(C)CC5)cn4)nc(-c4c(C)ccc5[nH]ncc45)c3C#N)C2)C1` [Compound I-181, 4-(2-acryloyl-2,6-diazaspiro[3.4]octan-6-yl)-6-(5-methyl-1H-indazol-4-yl)-2-((5-(4-methylpiperazin-1-yl)pyridin-2-yl)methoxy)pyrimidine-5-carbonitrile], which Binding % is on record?
Its Binding % is “++ (++ indicates binding activity from 50 to 85%)”.

`C=CC(=O)N1CC2(CCN(c3nc(OCCCN(C)C)nc(-c4c(C)ccc5[nH]ncc45)c3C#N)C2)C1` [Compound I-5, 4-(2-acryloyl-2,6-diazaspiro[3.4]octan-6-yl)-2-(3-(dimethylamino)pro-poxy)-6-(5-methyl-1H-indazol-4-yl)pyrimidine-5-carbonitrile] was tested. Which Binding % did it give?
Its Binding % is “+++ (+++ indicates binding activity greater than 85%)”.
